Measured values: patent publication US20220000976A1 (priority 2018, published 2022)
Where a name gives a salt, the structure may show the parent alone.

Columns and labels:
[1] = test system: ROR-γt+ Treg cells; conditions: mouse, in vivo
[2] = test system: Il4ra^F709 mice; test: Food allergy model: OVA/SEB oral sensitization and OVA challenge of treated Il4ra^F709 mice (core body temperature); format: in vivo, mouse; conditions: 100 mg/kg i.p. once weekly, OVA/SEB 8 weeks

Row | SMILES | ROR-γt+ staining in CD4+Foxp3+ Treg cells vs sham treatment [1] | Protection against food allergy ([2]; OVA challenge) | Core body temperature changes compared to control ([2]; after OVA challenge) | GATA3+ Helios+ gut Treg cells ([1]; ip, 100 mg/kg) | GATA3+ Helios− gut Treg cells ([1]; ip, 100 mg/kg) | GATA3+ gut Treg cells ([1]; ip, 100 mg/kg) | Gut ROR-γt+ Treg cells (expansion) ([1]; ip, 100 mg/kg) | ROR-γt+ Helios+ gut Treg cells ([1]; ip, 100 mg/kg) | ROR-γt+ Helios− gut Treg cells ([1]; ip, 100 mg/kg) | ROR-γt+ gut Treg cells ([1]; ip, 100 mg/kg)
1 | O=Cc1c[nH]c2ccccc12 [CA, indol-3-carboxaldehyde] | statistically significant increase |  |  |  |  |  |  |  |  | 
2 | O=S(=O)(O)Oc1c[nH]c2ccccc12 [I3S, Indoxyl sulfate] |  | protected against food allergy | statistically significant increase | statistically significant decrease | statistically significant decrease | statistically significant decrease | expanded gut ROR-γt^+ Treg cells | statistically significant increase | statistically significant increase | statistically significant increase
